Measured values reported in paper PMC12643063, “Mechanistic basis for inhibition of the extended‐spectrum β‐lactamase GES‐1 by enmetazobactam and tazobactam” (Febs Letters, 2025).

Tests used:
[1] = molecular target: T1, GES-1 (Guiana extended-spectrum β-lactamase 1) (Klebsiella pneumoniae, UniProt Q9KJY7); assay: ([…] Å), mass spectrometry; IC50 by nitrocefin hydrolysis, […] min pre-incubation; assay type: biochemical
T1 construct: pOPIN-F, expressed in SoluBL21 (DE3) E. coli

[2] = molecular target: T1, GES-1 (Guiana extended-spectrum β-lactamase 1); assay: ([…] Å; […] Da aldehyde fragment on Ser70), mass spectrometry; IC50 by nitrocefin hydrolysis, […] min pre-incubation; assay type: biochemical

T1 sequence (Q9KJY7 18-287): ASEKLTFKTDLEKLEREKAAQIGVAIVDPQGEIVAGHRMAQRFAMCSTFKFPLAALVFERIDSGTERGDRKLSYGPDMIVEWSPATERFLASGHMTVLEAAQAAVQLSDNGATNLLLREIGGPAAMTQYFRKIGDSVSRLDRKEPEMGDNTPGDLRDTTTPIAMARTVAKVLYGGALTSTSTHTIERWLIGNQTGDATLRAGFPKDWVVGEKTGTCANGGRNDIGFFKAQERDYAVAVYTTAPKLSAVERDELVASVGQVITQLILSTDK

Structure (SMILES) | IC50 [1] | IC50 [2]
C[n+]1ccn(C[C@@]2(C)[C@H](C(=O)O)N3C(=O)C[C@H]3S2(=O)=O)n1 [enmetazobactam] | 107 nM | –
C[C@]1(Cn2ccnn2)[C@H](C(=O)O)N2C(=O)C[C@H]2S1(=O)=O [tazobactam] | – | 444 nM
